Experimental data as given in US20230227466A1, “SUBSTITUTED THIENOPYRIMIDINES THAT INTERACT WITH THE RAS SUPERFAMILY FOR THE TREATMENT OF CANCERS, INFLAMMATORY DISEASES, RASOPATHIES, AND FIBROTIC DISEASE” (SHY Therapeutics, LLC, priority 2020, published 2023).
pIC50: −log10 of the molar value. Where two headings read alike, the source gives them in different places.

Legend:
[1] = tested on: Akt phosphorylation in Panc-1 cells; test: Western AKT cell-based phosphorylation assay; design: species or system human; settings: at 10 μM, values in brackets < > are activation %, not inhibition
In short: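 Panc-1 cells starved overnight in 0.5% FBS, exposed to compound at 10 μM (0.3% DMSO) for 6 h at 37° C, then stimulated with 1.5 ng/ml EGF for 15 min. Lysates probed by western blot with anti-phospho-Akt (Ser473), equal protein loading checked by Ponceau S.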

KRas G12D mutant = target: T1, KRas G12D mutant (Homo sapiens, UniProt P01116, G12D); test: Ras GTP binding domain inhibition assay (labeled-GTP competition, cell-free)
T1 construct: made in house
In short: (§1)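 First, the His-tagged protein was captured overnight at 4° C on nickel wells. Second, compound was applied at 20 μM or as a dilution series for IC50 over 3 h. Third, 100 nM Cy3- or Cy5-GTP was added for 45 min. Finally, wells were washed and bound label quantified.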

KRas G12C mutant = target: T2, KRas G12C mutant (Homo sapiens, UniProt P01116, G12C); test: as above
T2 construct: made in house
In short: as §1

KRas Q61H mutant = target: T3, KRas Q61H mutant (Homo sapiens, UniProt P01116, Q61H); test: as above
T3 construct: made in house
In short: as §1

Rho-A = Rho-A (Homo sapiens, UniProt P61586); test: as above; design: made in house
In short: as §1

Rac-1 = Rac-1 (Homo sapiens, UniProt P63000); test: as above; design: made in house
In short: as §1

KRas wild type = KRas wild type (Homo sapiens, UniProt P01116); test: as above; design: made in house
In short: as §1

[2] = with SOS, read-out: KRas G12D mutant + SOS: % inh.
[3] = without SOS, read-out: KRas G12D mutant: % inh.
[4] = with SOS, read-out: KRas G12C mutant + SOS: % inh.
[5] = without SOS, read-out: KRas G12C mutant: % inh.
[6] = with SOS, read-out: KRas Q61H mutant + SOS: % inh.
[7] = without SOS, read-out: KRas Q61H mutant: % inh.
[8] = with SOS, read-out: Rho-A + SOS: % inh.
[9] = without SOS, read-out: Rho-A: % inh.
[10] = with SOS, read-out: Rac-1 + SOS: % inh.
[11] = without SOS, read-out: Rac-1: % inh.
[12] = with SOS, read-out: KRas wild type + SOS: % inh.
[13] = without SOS, read-out: KRas wild type: % inh.

SMILES | % inh of AKT phosphorylation in PANC-1 [1] | inhibition at 20 µM (KRas G12D mutant; [2]) [%] | inhibition at 20 µM (KRas G12D mutant; [3]) [%] | inhibition at 20 µM (KRas G12C mutant; [4]) [%] | inhibition at 20 µM (KRas G12C mutant; [5]) [%] | inhibition at 20 µM (KRas Q61H mutant; [6]) [%] | inhibition at 20 µM (KRas Q61H mutant; [7]) [%] | pIC50 (KRas Q61H mutant; with SOS) | inhibition at 20 µM (Rho-A; [8]) [%] | inhibition at 20 µM (Rho-A; [9]) [%] | inhibition at 20 µM (Rac-1; [10]) [%] | inhibition at 20 µM (Rac-1; [11]) [%] | inhibition at 20 µM (KRas wild type; [12]) [%] | inhibition at 20 µM (KRas wild type; [13]) [%]
CO[C@H]1CC[C@@H](Nc2nc(-c3nccn3C)nc3sc(-c4ccn(C(C)C)n4)c(C)c23)C1 [Compound 32, 6-(1-Isopropyl-1H-pyrazol-3-yl)-N-((1R,3S)-3-methoxycyclopentyl)-5-methyl-2-(1-methyl-1H-imidazol-2-yl)thieno[2,3-d]pyrimidin-4-amine] | 0 (0% inhibition) | 76 to 100 | 26 to 50 | 76 to 100 | 51 to 75 | 76 to 100 | 51 to 75 | 5.30 to 6.00 | 51 to 75 | 51 to 75 | 26 to 50 | 26 to 50 | 76 to 100 | 76 to 100
COCCNc1nc(-c2nccn2C)nc2sc(-c3ccn(C(C)C)n3)c(C)c12 [Compound 35, 6-(1-Isopropyl-1H-pyrazol-3-yl)-N-(2-methoxyethyl)-5-methyl-2-(1-methyl-1H-imidazol-2-yl)thieno[2,3-d]pyrimidin-4-amine] | 0 (0% inhibition) | 76 to 100 | 76 to 100 | 76 to 100 | 76 to 100 | 76 to 100 | 76 to 100 |  | 76 to 100 | 76 to 100 | 76 to 100 | 76 to 100 | 76 to 100 | 76 to 100
COCCCNc1nc(-c2nccn2C)nc2sc(-c3ccn(C(C)C)n3)c(C)c12 [Compound 36, 6-(1-Isopropyl-1H-pyrazol-3-yl)-N-(3-methoxypropyl)-5-methyl-2-(1-methyl-1H-imidazol-2-yl)thieno[2,3-d]pyrimidin-4-amine] | 0 (0% inhibition) | 76 to 100 | 51 to 75 | 76 to 100 | 76 to 100 | 76 to 100 | 76 to 100 |  | 76 to 100 | 26 to 50 | 76 to 100 | 76 to 100 | 76 to 100 | 76 to 100
CO[C@H]1CN(c2nc(-c3nccn3C)nc3sc(-c4ccn(C(C)C)n4)c(C)c23)C[C@H]1OC [Compound 39, rac-4-((3S,4R)-3,4-Dimethoxypyrrolidin-1-yl)-6-(1-isopropyl-1H-pyrazol-3-yl)-5-methyl-2-(1-methyl-1H-imidazol-2-yl)thieno[2,3-d]pyrimidine] | <B> | 76 to 100 | 51 to 75 | 51 to 75 | 51 to 75 | 76 to 100 | 51 to 75 |  | 76 to 100 | 76 to 100 | 51 to 75 | 51 to 75 | 51 to 75 | 76 to 100
CO[C@H]1C[C@@H](Nc2nc(-c3nccn3C)nc3sc(-c4ccn(C(C)C)n4)c(C)c23)C[C@H]1OC [Compound 42, N-((1r,3R,4S)-3,4-Dimethoxycyclopentyl)-6-(1-isopropyl-1H-pyrazol-3-yl)-5-methyl-2-(1-methyl-1H-imidazol-2-yl)thieno[2,3-d]pyrimidin-4-amine] | <D> | 51 to 75 | 76 to 100 | 76 to 100 | 76 to 100 | 76 to 100 | 76 to 100 |  | 76 to 100 | 51 to 75 | 51 to 75 | 51 to 75 | 76 to 100 | 51 to 75
CO[C@H]1C[C@H](Nc2nc(-c3nccn3C)nc3sc(-c4ccn(C(C)C)n4)c(C)c23)C[C@H]1OC [Compound 43, N-((1s,3R,4S)-3,4-Dimethoxycyclopentyl)-6-(1-isopropyl-1H-pyrazol-3-yl)-5-methyl-2-(1-methyl-1H-imidazol-2-yl)thieno[2,3-d]pyrimidin-4-amine] | <D> | 76 to 100 | 76 to 100 | 76 to 100 | 1 to 25 | 76 to 100 | 1 to 25 |  | 76 to 100 | 76 to 100 | 51 to 75 | 26 to 50 | 76 to 100 | 26 to 50
Cc1c(-c2ccn(C(C)C)n2)sc2nc(-c3nccn3C)nc(NCCc3nnn[nH]3)c12 [Compound 46, N-(2-(1H-Tetrazol-5-yl)ethyl)-6-(1-isopropyl-1H-pyrazol-3-yl)-5-methyl-2-(1-methyl-1H-imidazol-2-yl)thieno[2,3-d]pyrimidin-4-amine] | A (1-25% inhibition) | 76 to 100 | 26 to 50 | 51 to 75 | 51 to 75 | 76 to 100 | 76 to 100 |  | 76 to 100 | 76 to 100 | 76 to 100 | 76 to 100 | 51 to 75 | 76 to 100
CO[C@H]1C[C@@H](CNc2nc(-c3nccn3C)nc3sc(-c4ccn(C(C)C)n4)c(C)c23)C1 [Compound 47, 6-(1-Isopropyl-1H-pyrazol-3-yl)-N-(((1s,3s)-3-methoxycyclobutyl)methyl)-5-methyl-2-(1-methyl-1H-imidazol-2-yl)thieno[2,3-d]pyrimidin-4-amine] | 0 (0% inhibition) | 51 to 75 | 51 to 75 | 76 to 100 | 51 to 75 | 76 to 100 | 51 to 75 |  | 76 to 100 | 76 to 100 | 51 to 75 | 51 to 75 | 76 to 100 | 76 to 100
CO[C@H]1C[C@H](CNc2nc(-c3nccn3C)nc3sc(-c4ccn(C(C)C)n4)c(C)c23)C1 [Compound 48, 6-(1-Isopropyl-1H-pyrazol-3-yl)-N-(((1r,3r)-3-methoxycyclobutyl)methyl)-5-methyl-2-(1-methyl-1H-imidazol-2-yl)thieno[2,3-d]pyrimidin-4-amine] | 0 (0% inhibition) | 51 to 75 | 26 to 50 | 51 to 75 | 51 to 75 | 51 to 75 | 51 to 75 |  | 76 to 100 | 51 to 75 | 26 to 50 | 26 to 50 | 51 to 75 | 76 to 100
